Like-named read-outs stand apart in the source and are kept apart here. Marks after values point to notes of the source that are not given here.

As usually defined, the IC50 is the concentration needed to halve the response being measured. The IC90 is the concentration needed for an effect of 90%. As a reminder, the Papp is the rate of passage across a membrane or cell layer, normalised by area and donor concentration. The low end stands for slow passage, the high end for fast passage.

For data set [1], the system named is rat skeletal myoblast L6 cells. The data set is described as follows: cells. To be noted: L6, read-out: L6 cells IC50.
Experimental: (§1) Cytotoxicity against mammalian cells was assessed using microtitre plates following a described procedure [58]. Briefly, rat skeletal muscle L6 cells were seeded at 1 × 10^4 mL^−1 in 200 μL of growth medium containing different compound concentrations. The plates were incubated for 6 days at 37 °C and 20 μL resazurin was then added to each well. After a further 8 h incubation, the fluorescence was determined using a Spectramax plate reader.
Data set [2] concerns bloodstream form T. brucei (strain 221). Nature of the data set: Trypanocidal activity against cultured bloodstream form T. brucei (resazurin). To be noted: Trypanosoma brucei. (In general: Resazurin is reduced to fluorescent resorufin, in cell work by metabolically active cells.)
Experimental: T. brucei in the logarithmic phase of growth were diluted back to 2.5 × 10^4 mL^−1 and aliquoted into 96-well plates. The compounds were then added at a range of concentrations and the plates incubated at 37 °C. Each drug concentration was tested in triplicate. Resazurin was added after 48 h and the plates incubated for a further 16 h and the plates then read in a Spectramax plate reader. Results were analysed using GraphPad Prism.
For data set [3], the target named is Electrophorus electricus AChE (EeAChE) (Electrophorus electricus, UniProt O42275). On the set-up: method as in PMID 24389509. Conditions: same experimental conditions; ref [40]; cited from earlier work.
Data set [4] in a line: in vitro. To be noted: rat, SITb: selectivity index as the ratio of cytotoxic to anti-T. brucei IC50 values.
Experimental: as §1
Data set [5] relates to human recombinant AChE (hAChE). Also on record: method as in PMID 24389509. Conditions: ref [40]; cited from earlier work.
Data set [6] in a line: in vitro. Conditions: pig, PAMPA. (The PAMPA barrier holds no transporters, so it reflects passive diffusion.)
Experimental: Thus, the brain passive permeability of the novel compounds was evaluated in vitro through the widely used PAMPA-BBB method [[50]
The target in data set [7] is L. infantum strain MCAN/ES/92/BCN722 promastigote forms. The data set is described as follows: Activity against promastigotes of L. infantum (acid phosphatase). To be noted: promastigote form; mean ± SD of duplicate experiments performed at least twice. Format: cell-based, Leishmania infantum.
The test system of data set [8] is rat skeletal myoblast L6 cells.
Experimental: as §1
The test system of data set [9] is bloodstream form T. brucei (strain 221). Conditions: read-out: T. brucei IC50; nifurtimox reference value; ref [49]; cited from earlier work.

Chain of Electrophorus electricus AChE (EeAChE) (O42275 24-633): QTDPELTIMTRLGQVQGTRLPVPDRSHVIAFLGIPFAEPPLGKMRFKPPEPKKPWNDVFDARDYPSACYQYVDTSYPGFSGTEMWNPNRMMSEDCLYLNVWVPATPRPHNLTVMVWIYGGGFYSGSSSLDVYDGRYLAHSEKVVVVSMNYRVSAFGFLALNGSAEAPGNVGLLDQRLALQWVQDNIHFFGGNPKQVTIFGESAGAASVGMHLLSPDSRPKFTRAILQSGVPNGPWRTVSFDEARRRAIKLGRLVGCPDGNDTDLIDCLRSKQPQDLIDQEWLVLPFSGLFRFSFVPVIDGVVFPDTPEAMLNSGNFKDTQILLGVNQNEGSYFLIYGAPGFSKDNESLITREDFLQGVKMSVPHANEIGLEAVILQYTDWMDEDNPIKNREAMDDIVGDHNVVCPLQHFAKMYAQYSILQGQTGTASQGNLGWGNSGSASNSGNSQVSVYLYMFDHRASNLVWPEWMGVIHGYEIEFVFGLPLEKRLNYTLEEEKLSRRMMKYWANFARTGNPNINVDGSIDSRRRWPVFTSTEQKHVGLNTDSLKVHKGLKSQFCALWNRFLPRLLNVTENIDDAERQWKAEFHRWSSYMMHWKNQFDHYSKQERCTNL

Take `CCNCc1ccc2nc(-c3ccc(Cl)cc3)c3c(c2c1)N(Cc1ccccc1)CCC3` [Compound 1]: the IC50 in data set [1] was 7.08 ± 0.11 µM; in [2] (pH 7.4, read-out: T. brucei IC50, bloodstream form, pH 7.4, mean of triplicate ± SEM) it was 3.33 ± 0.18 µM; in data set [3], 0.15 ± 0.01 µM; in data set [5], 0.94 µM. Also, the IC90 in data set [2] (pH 7.4, read-out: T. brucei IC90) is 4.39 ± 0.04 µM. Also, in “in vitro [4]” (rat skeletal muscle L6 cells, L6 IC50 / T. brucei IC50), the selectivity ratio at 6 days came to 2.1.
Regarding `CCn1cc(C(=O)O)c(=O)c2cc(F)c(N3CCNCC3)cc21` [Norfloxacin], the Papp in “in vitro [6]” is 0.9 ± 0.02 ×10⁻⁶ cm/s.
`O.O.O.O=C([O-])C(O)C(O)C(=O)[O-].O=C([O-])C(O)C(O)C(=O)[O-].[K+].[K+].[Sb].[Sb]` (stereo not drawn) [Sb (III), Potassium antimony (III) tartrate hydrate, reference compound] displayed an IC50 in data set [7] of 24.3 ± 1.7 µM. For the same compound, the “SILi: selectivity index as the ratio of cytotoxic to anti-L. infantum IC50 values” in data set [8] is 0.1 ^g.
With `CC1CS(=O)(=O)CCN1/N=C/c1ccc([N+](=O)[O-])o1` (stereo not drawn) [nifurtimox, reference compound], the IC50 in [1] was 32 ± 1.1 µM; in data set [9], 4.4 ± 0.7 µM. The selectivity ratio at 6 days in the data set “in vitro [4]” came to 7.3.
